Read-outs that look alike come from different tables or passages of the source.
Legend:
[1] = biological target: human Sig-1R (Homo sapiens, UniProt Q99720); test: Affinity for the human Sig-1R; assay type: binding
Experimental: (§1) A selectivity profile (Spectrum Screen) including a panel with more than 180 binding assays for different receptors, ion channels, transporters and enzymes was performed for compound A and compound B at EurofinsPanlabs according to their specifications.

[2] = biological target: Sig-2R (Homo sapiens, UniProt Q5BJF2); test: Affinity for the Sig-2R; assay type: binding; conditions: not shown
Sig-2R, sequence (Q5BJF2 whole entry): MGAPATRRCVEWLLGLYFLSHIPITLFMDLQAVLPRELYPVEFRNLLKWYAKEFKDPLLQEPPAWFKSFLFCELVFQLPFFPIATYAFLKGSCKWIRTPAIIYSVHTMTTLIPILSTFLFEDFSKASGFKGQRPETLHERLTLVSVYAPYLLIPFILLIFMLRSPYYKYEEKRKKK
Experimental: as §1

[3] = system: motoneurons (MNs) in spinal cord organotypic cultures; test: Spinal cord organotypic cultures (SCOCs) under THA chronic excitotoxicity, SMI-32 positive MN count; assay type: cell-based, Sprague-Dawley rats; conditions: THA 100 μM, 28 DIV
Experimental: Briefly, the spinal cord was collected and cut in 350 μm thick transverse sections with a Mcllwain Tissue Chopper. Four lumbar sections per sample were transferred onto Millicell-CM nets (0.4 μm, PICM03050, Millipore) in medium [50% (v/v) minimal essential medium (MEM, M5775, Sigma), 2 mM glutamine, 25 mM HEPES, 25% (v/v) Hank's Balanced Salt Solution (HBSS^−/−, 14175, Gibco) supplemented with 25.6 mg/ml glucose and 25% (v/v) heat-inactivated horse serum (26050-088, Gibco), pH=7.2]. Cultures were maintained at 37° C. in a 5% CO2 humidified cabin and let to stabilize. After 7 days in vitro (DIV), DL-threo-b-hydroxyaspartic acid (THA; 100 μM) was added to induce chronic excitotoxicity (Rothstein et al., 1993). The neuroprotective effect of each Sig-1R ligand was assessed by its coaddition to the culture with THA and renewing at each medium change. […] In vitro experiments were performed in three independent cultures, with at least 12 different SCOCs for each experimental condition.
Slices were maintained for 28 DIV and then fixed with 4% paraformaldehyde. […] MN survival was assessed by counting all SMI-32 positive neurons in each spinal cord using the Cell Counter plugin of ImageJ software.

[4] = in vivo; set-up: species or system male SOD1^G93A mice; conditions: mouse, ip; for concentration at 15 min: male, SOD1^G93A
Experimental: Plasma levels were determined in the two in vivo models evaluated to be able to associate the pharmacological activity with the levels present in plasma. […] […] […] Results are expressed as mean±standard deviation (n=2-6).

[5] = system: SOD1^G93A mice; conditions: for NMJ innervation (proportion of innervated endplates) of hindlimb muscle: SOD1^G93A mice at 16 weeks; for NMJ innervation (proportion of innervated endplates) of hindlimb muscle / astrocyte activation (GFAP) in ventral horn: compounds 5 mg/kg; for NMJ innervation (proportion of innervated endplates) of hindlimb muscle / CMAP amplitude of TA and plantar muscles / astrocyte activation (GFAP) in ventral horn: PRE-084 0.25 mg/kg i.p. bid; for CMAP amplitude of TA and plantar muscles / number of surviving spinal MNs per section / astrocyte activation (GFAP) in ventral horn: SOD1^G93A mice; for CMAP amplitude of TA and plantar muscles: 11 and 13 weeks, compound 5 mg/kg; for number of surviving spinal MNs per section: 16 weeks of age, mean±SEM; for astrocyte activation (GFAP) in ventral horn: 16 weeks
Experimental: Motor nerve conduction tests were performed before the surgery to obtain baseline values and at the end of the follow up in the rhizotomy model, whereas the SOD1^G93A mice were evaluated at 8 weeks (prior to starting drug administration) and then every 2-3 weeks until the end point at 16 weeks of age. The sciatic nerve was stimulated by means of single pulses delivered through needle electrodes placed at the sciatic notch. The compound muscle action potential (CMAP) was recorded from tibialis anterior (TA), gastrocnemius (GM) and plantar interossei muscles with microneedle electrodes (Mancuso et al., 2011). The CMAPs were amplified to measure the latency to the onset and the amplitude from baseline to the maximal negative peak. The mice were anesthetized with pentobarbital (50 mg/kg i.p.) and their body temperature was maintained by means of a thermostated warming pad.
For neuromuscular junctions (NMJ) labeling, 50 μm-thick longitudinal sections of TA muscle were serially cut. Sections were blocked with 5% normal donkey serum and incubated with primary antibodies rabbit anti-synaptophysin (1:500; AB32127, Abcam) and chicken anti-neurofilament 200 (NF200, 1:1000; AB5539, Millipore, USA) 48 h at 4° C. After washes, sections were incubated overnight with secondary antibody Alexa Fluor 594-donkey anti-rabbit and anti-chicken (1:200; A11042-A21207, Invitrogen, USA) and Alexa 488 conjugated α-bungarotoxin (1:500; B13422, Life Technologies, USA). Confocal images were captured (LSM 700 Axio Observer, Carl Zeiss, 40×Oil/z0.5) and the maximum projection images generated from 1.3 μm z projections. The proportion of innervated NMJs was calculated by classifying each endplate as occupied (when presynaptic terminals overly the endplate) or vacant (no presynaptic label in contact with the endplate). At least 60 endplates were analyzed per muscle.

[6] = Pharmacokinetics in plasma and brain after single i.p. dose; conditions: for half-life: t1/2 (terminal half-life); for half-life / AUC, brain / Cmax, brain / penetration into the brain: single i.p. 10 mg/kg; for half-life / AUC, brain / Cmax, brain: female mice; for penetration into the brain: mice
Experimental: (§2) Blood and brain samples were extracted at selected time points (15 min, 1, 3 and 6 h) from two animals per sampling point. Blood samples were collected by intracardiac puncture into heparinized tubes. Plasma was obtained by blood centrifugation at 4° C. and 2280 g for 10 min. Plasma and brain samples were kept at −80° C. until analysis. Brains were homogenized with Dulbecco's phosphate saline buffer pH 7.4 (4 ml/g tissue). Plasma and brain samples were assayed by ultra-performance liquid chromatography-triple quadrupole mass spectrometry (UPLC-MS/MS) after protein precipitation. Standard pharmacokinetic parameters, such as the area under the curve (AUC), peak plasma concentration (Cmax), time to peak concentration (tmax), and terminal half-life (t1/2) were determined by noncompartmental analysis of the plasma and brain concentration-time curves (Phoenix v.6.2.1.51, Pharsight, CA).

[7] = system: rhizotomized mice (L4-L5 spinal nerve section); test: L4-L5 spinal roots injury (rhizotomy): MN survival, glial reactivity, tolerability; conditions: for number of spinal MNs in the ipsilateral ventral horn (L4-L5) / astroglial reactivity, GFAP integrated density / microglial reactivity, IBA1 integrated density: 42 dpi, mean±SEM
Experimental: Briefly, the L4-L5 spinal roots were exposed by a small laminectomy on the right side. Then, roots were cut at the exit from the intervertebral foramina and the root stumps were separated. Mice were cared until recovery in warm environment.
The compounds were dissolved in 0.5% hydroxypropyl-methylcellulose (HPMC; Sigma-Aldrich) in distilled water. The compounds were administered by intraperitoneal (i.p.) route twice daily (bid) in a volume of 10 ml/kg. Administrations were given from 30 min after rhizotomy surgery until 42 days post-injury (dpi), the end of the study; in the SOD1^G93A study, treatments were given from 8 to 16 weeks of age.
At the end of follow up (42 days post-injury (dpi)) for rhizotomy and 16 weeks of age for ALS mice) the animals were deeply anesthetized and transcardially perfused with 4% paraformaldehyde in PBS. The lumbar spinal cord and the TA muscle were harvested and cryopreserved in 30% sucrose solution in PB. The spinal cords were serially cut in 20 μm-thick transverse sections with a cryostat (Leica). For MN counting, L4-L5 spinal cord sections separated 100 μm were stained for 3 h with an acidified solution of 3.1 mM cresyl violet.
Finally, sides were mounted with Fluoromount G. To quantify glial cell reactivity, images of the ventral horn were acquired with an epifluorescence microscope (Nikon Eclipse Ni, Japan) using the same conditions for each analyzed marker. After defining a threshold for background correction, the integrated density of GFAP or Iba1 labeling was measured using ImageJ software.

[8] = in vivo; conditions: female, C57-BL6, mouse, ip, 10 mg/kg; for half-life: t1/2 (terminal half-life)
Experimental: as §2

[9] = Plasma levels in the rhizotomy model after chronic i.p. administration; set-up: species or system female mice (B6SJL); conditions: mouse, in vivo, ip, 0.25 mg/kg
[10] = cited from earlier work
[11] = 5 mg/kg i.p. bid, untreated 6.9±0.5, WT 25.3±0.5
[12] = female, C57-BL6, mouse, brain, ip, 10 mg/kg
[13] = female, C57-BL6, mouse, plasma, ip, 10 mg/kg
[14] = 0.5 mg/kg bid i.p., not significant
[15] = 5 mg/kg bid i.p., untreated 19×10^4±5×10^4
[16] = 5 mg/kg bid i.p., untreated 26×10^4±3×10^4
[17] = twice daily i.p. administration for 6 weeks

human Sig-1R, sequence (Q99720 whole entry): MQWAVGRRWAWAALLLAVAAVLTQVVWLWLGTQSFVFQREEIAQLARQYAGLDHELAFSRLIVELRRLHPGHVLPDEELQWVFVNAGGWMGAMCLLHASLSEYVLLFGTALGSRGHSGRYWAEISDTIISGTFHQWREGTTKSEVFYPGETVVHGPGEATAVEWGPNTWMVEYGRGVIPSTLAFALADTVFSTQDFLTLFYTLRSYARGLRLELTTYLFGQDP

Structure (SMILES) | affinity for the human Sig-1R [1] | IC50 [2] [µM] | concentration at 15 min ([4]; 5 mg/kg) [ng/mL] | NMJ innervation (proportion of innervated endplates) of hindlimb muscle [5] | CMAP amplitude of TA and plantar muscles [5] | number of surviving spinal MNs per section [5, 11] | astrocyte activation (GFAP) in ventral horn [5] | AUC, brain ([6]; brain) [ng·h/g] | Cmax, brain ([6]; brain) [ng/g] | penetration into the brain [6] | number of spinal MNs in the ipsilateral ventral horn (L4-L5) [7, 14] | astroglial reactivity, GFAP integrated density [7, 15] | microglial reactivity, IBA1 integrated density [7, 16] | toxicity on chronic administration [7, 17] | further results
C[C@@H]1OC2(CCN(Cc3ccc(F)cc3)CC2)CN(C)C1=O [Compound A, (S)-9-(4-fluorobenzyl)-2,4-dimethyl-1-oxa-4,9-diazaspiro[5.5]undecan-3-one] | high affinity | > 10 | ~500 | tendency to preserve NMJ innervation | significantly prevented the decline in amplitude of the CMAP | 10.8±1.1 | significant decrease of astrocyte activation | 4873 | 5405 | good penetration into the brain | 7.6±0.9 | 4×10^4±0.4×10^4 | 13×10^4±2×10^4 | did not cause toxicity | number of SMI-32 positive neurons vs THA condition ([3]; tested at 0.03, 0.3, 3 and 30 μM, significant at three concentrations): significantly more SMI-32 positive neurons; estimated brain concentration ([4]; 5 mg/kg): about two-fold the concentration of compound B; Kp ([6]; female, C57-BL6, mouse, brain and plasma, ip, 10 mg/kg): 4.4; Tmax [6, 12]: 0.25 h; half-life [6, 12]: > 5 h; AUC [6, 13]: 1120 ng·h/mL; Cmax [6, 13]: 1350 ng/mL; Tmax [6, 13]: 0.25 h; half-life [6, 13]: > 5 h; number of spinal MNs in the ipsilateral ventral horn (L4-L5) ([7]; 5 mg/kg/bid i.p. for 6 weeks, untreated injured 6.8±0.3): 8.6±0.6
CCN1CC2(CCN(Cc3ccc(C#N)c(F)c3)CC2)O[C@@H](C)C1=O [Compound B, (S)-4-((4-ethyl-2-methyl-3-oxo-1-oxa-4,9-diazaspiro[5.5]undecan-9-yl)methyl)-2-fluorobenzonitrile] | high affinity | > 10 | ~500 | tendency to preserve NMJ innervation |  | 8.5±1.0 | significant decrease of astrocyte activation | 1698 | 2652 | good penetration into the brain | 7.4±0.7 | 15×10^4±2.7×10^4 | 25×10^4±4×10^4 | did not cause toxicity | preservation of MNs (SMI-32 positive) vs THA condition ([3]; 3 and 30 μM): significantly preserved MNs; AUC [8]: 802 ng·h/mL; Cmax [8]: 1340 ng/mL; Kp [8]: 2.1; Tmax [8]: 0.25 h; half-life ([8]; brain): 3.4 h; half-life ([8]; plasma): 2.2 h; body weight compared with the vehicle group [7, 17]: no difference in body weight
O=C(OCCN1CCOCC1)C1(c2ccccc2)CCCCC1 [PRE-084, reference compound] | good affinity |  |  | significantly increased the proportion of innervated endplates | higher CMAP amplitude values |  | significant decrease of astrocyte activation |  |  |  |  |  |  |  | Plasma concentration 30 min post-administration [9]: 3.6 ng/mL; Plasma concentration 30 min post-administration ([4]; 0.25 mg/kg): 2.6 ng/mL; number of surviving spinal MNs per section ([5]; 0.25 mg/kg i.p. bid): 12.4±0.9; Cmax, plasma ([10]; mouse, in vivo, ip, 10 mg/kg): 659 ng/mL; Cmax, brain ([10]; single i.p. 10 mg/kg, concentration at 5 min post-administration, brain): 774 ng/g; astroglial reactivity, GFAP integrated density ([7]; 0.25 mg/kg bid i.p.): 6×10^4±0.9×10^4; microglial reactivity, IBA1 integrated density ([7]; 0.25 mg/kg bid i.p.): 15×10^4±1.4×10^4; number of spinal MNs in the ipsilateral ventral horn (L4-L5) ([7]; 0.25 mg/kg bid i.p., positive control): 8.9±0.4

— patent US20250002503A1, “OXADIAZASPIRO COMPOUNDS FOR USE IN THE TREATMENT OF MOTONEURON DEGENERATION OR IN NEUROPROTECTION” (ESTEVE PHARMACEUTICALS, S.A., priority 2021, published 2025)
